Where a name gives a salt, the structure may show the parent alone.
molecular target: T1, PI3Kδ (p110δ/p85α) (Homo sapiens, UniProt O00329); assay: PI3Kδ scintillation proximity assay; assay type: biochemical; conditions: 20 μM ATP, 4 nM PI3Kδ
T1 construct: purchased Millipore (Bedford, Mass.)
Excerpt: Example A: PI3Kδ Scintillation Proximity Assay
Materials: [γ-^33P]ATP (10 mCi/mL) was purchased from Perkin-Elmer (Waltham, Mass.). Lipid kinase substrate, D-myo-Phosphatidylinositol 4,5-bisphosphate (PtdIns(4,5)P2)D (+)-sn-1,2-di-O-octanoylglyceryl, 3-O-phospho linked (PIP2), CAS 204858-53-7, was purchased from Echelon Biosciences (Salt Lake City, Utah). PI3Kδ (p110δ/p85α) was purchased from Millipore (Bedford, Mass.). ATP, MgCl2, DTT, EDTA, MOPS and CHAPS were purchased from Sigma-Aldrich (St. Louis, Mo.). Wheat Germ Agglutinin (WGA) YSi SPA Scintillation Beads was purchased from GE healthcare life sciences (Piscataway, N.J.).
The kinase reaction was conducted in polystyrene 384-well matrix white plate from Thermo Fisher Scientific in a final volume of 25 μL. Inhibitors were first diluted serially in DMSO and added to the plate wells before the addition of other reaction components. The final concentration of DMSO in the assay was 0.5%. The PI3K assays were carried out at room temperature in 20 mM MOPS, pH 6.7, 10 mM MgCl2, 5 mM DTT and CHAPS 0.03%. Reactions were initiated by the addition of ATP, the final reaction mixture consisted of 20 μM PIP2,20 μM ATP, 0.2 μCi [γ-^33P] ATP, 4 nM PI3Kδ. Reactions were incubated for 210 minutes and terminated by the addition of 40 μL SPA beads suspended in quench buffer: 150 mM potassium phosphate pH 8.0, 20% glycerol. 25 mM EDTA, 400 µM ATP. The final concentration of SPA beads is 1.0 mg/mL. After the plate sealing, plates were shaken overnight at room temperature and centrifuged at 1800 rpm for 10 minutes, the radioactivity of the product was determined by scintillation counting on Topcount (Perkin-Elmer). IC50 determination was performed by fitting the curve of percent control activity versus the log of the inhibitor concentration using the GraphPad Prism 3.0 software.

T1 sequence (O00329 whole entry, species assumed): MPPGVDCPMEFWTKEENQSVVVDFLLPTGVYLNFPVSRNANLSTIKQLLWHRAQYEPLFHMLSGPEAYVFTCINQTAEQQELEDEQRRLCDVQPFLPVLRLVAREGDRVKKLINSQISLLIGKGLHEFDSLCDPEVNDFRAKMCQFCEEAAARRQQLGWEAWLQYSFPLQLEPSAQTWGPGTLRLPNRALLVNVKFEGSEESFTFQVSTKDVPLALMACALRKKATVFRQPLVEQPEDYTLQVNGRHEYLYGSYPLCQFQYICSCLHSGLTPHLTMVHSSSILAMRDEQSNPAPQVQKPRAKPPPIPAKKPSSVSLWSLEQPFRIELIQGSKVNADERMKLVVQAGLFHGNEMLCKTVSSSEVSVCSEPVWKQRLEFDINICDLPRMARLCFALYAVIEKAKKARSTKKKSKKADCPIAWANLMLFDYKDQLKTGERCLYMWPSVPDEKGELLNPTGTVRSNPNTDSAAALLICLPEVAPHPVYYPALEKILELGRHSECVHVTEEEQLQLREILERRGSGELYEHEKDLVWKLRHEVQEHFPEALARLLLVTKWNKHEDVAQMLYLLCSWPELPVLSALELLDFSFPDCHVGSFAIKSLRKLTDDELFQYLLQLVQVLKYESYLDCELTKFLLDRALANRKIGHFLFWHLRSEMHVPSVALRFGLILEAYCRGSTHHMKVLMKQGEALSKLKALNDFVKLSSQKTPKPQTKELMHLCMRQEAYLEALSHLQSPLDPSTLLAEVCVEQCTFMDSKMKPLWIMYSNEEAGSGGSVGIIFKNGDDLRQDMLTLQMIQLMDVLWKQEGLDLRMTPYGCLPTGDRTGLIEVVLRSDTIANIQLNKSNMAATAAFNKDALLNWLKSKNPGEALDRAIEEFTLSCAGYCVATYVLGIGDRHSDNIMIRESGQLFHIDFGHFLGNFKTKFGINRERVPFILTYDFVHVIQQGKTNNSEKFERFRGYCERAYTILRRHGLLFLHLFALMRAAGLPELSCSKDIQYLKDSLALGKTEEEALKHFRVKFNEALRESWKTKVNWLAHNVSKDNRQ
T1 sequence (P27986 whole entry partner, species assumed): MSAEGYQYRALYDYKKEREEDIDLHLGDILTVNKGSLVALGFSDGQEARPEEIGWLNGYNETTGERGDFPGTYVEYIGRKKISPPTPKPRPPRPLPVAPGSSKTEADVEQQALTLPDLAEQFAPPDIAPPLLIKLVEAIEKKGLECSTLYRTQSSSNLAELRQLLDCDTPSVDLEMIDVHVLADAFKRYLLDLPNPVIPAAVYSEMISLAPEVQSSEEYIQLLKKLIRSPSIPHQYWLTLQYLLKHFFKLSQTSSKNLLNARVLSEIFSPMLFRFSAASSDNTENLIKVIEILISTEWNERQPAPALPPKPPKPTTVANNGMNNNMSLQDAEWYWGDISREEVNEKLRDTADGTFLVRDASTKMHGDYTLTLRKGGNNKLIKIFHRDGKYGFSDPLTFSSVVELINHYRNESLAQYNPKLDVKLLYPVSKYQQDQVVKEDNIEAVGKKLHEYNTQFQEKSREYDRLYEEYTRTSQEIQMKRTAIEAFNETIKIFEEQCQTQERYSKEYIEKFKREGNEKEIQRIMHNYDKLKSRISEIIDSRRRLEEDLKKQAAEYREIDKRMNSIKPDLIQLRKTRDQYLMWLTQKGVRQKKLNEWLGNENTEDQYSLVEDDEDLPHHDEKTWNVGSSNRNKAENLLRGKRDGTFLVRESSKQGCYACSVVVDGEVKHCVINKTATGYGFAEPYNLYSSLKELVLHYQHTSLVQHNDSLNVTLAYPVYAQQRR

Compound | IC50
COc1ccc(-c2c(C)c(Cl)cc(C(C)Nc3ncnc4[nH]cnc34)c2OCCN2CCOCC2)cc1OC (stereo not shown) [Example 153, N-{1-[5-chloro-3′,4′-dimethoxy-6-methyl-2-(2-mor-pholin-4-ylethoxy)-biphenyl-3-yl]ethyl}-9H-purin-6-amine] | < 50 nM
Cc1c(Cl)cc(C(C)Nc2ncnc3[nH]cnc23)c(OCCN2CCOCC2)c1-c1cnc(N)nc1 (stereo not shown) [Example 149, N-{1-[3-(2-amino-pyrimidin-5-yl)-5-chloro-4-methyl-2-(2-morpholin-4-ylethoxy)-phenyl]ethyl}-9H-purin-6-amine] | < 50 nM
COc1c(C(C)Nc2ncnc3[nH]cnc23)cc(Cl)c(F)c1C1CN(C(C)C)C1 (stereo not shown) [Example 172, N-{1-[5-Chloro-4-fluoro-3-(1-isopropylazetidin-3-yl)-2-methoxyphenyl]ethyl}-9H-purin-6-amine bis(trifluoroacetate)] | < 50 nM
COc1c(C(C)Nc2ncnc3[nH]cnc23)cc(Cl)c(C)c1C1CNC1 (stereo not shown) [Example 165, N-[1-(3-azetidin-3-yl-5-chloro-2-methoxy-4-methylphenyl)ethyl]-9H-purin-6-amine bis(trifluoroacetate)] | < 50 nM
COc1c(C(C)Nc2ncnc3[nH]cnc23)cc(Cl)c(Cl)c1C1CN(CC(F)F)C1 (stereo not shown) [Example 210, N-(1-{4,5-Dichloro-3-[1-(2,2-difluoroethyl)azetidin-3-yl]-2-methoxyphenyl}ethyl)-9H-purin-6-amine bis(trifluoroacetate)] | < 50 nM
COc1cccc(-c2c(C)c(Cl)cc(C(C)Nc3ncnc4[nH]cnc34)c2OC)c1 (stereo not shown) [Example 103] | < 50 nM
COc1c(C(C)Nc2ncnc3[nH]cnc23)cc(Cl)c(C)c1C1CN(C)C1 (stereo not shown) [Example 171, N-{1-[5-Chloro-2-methoxy-4-methyl-3-(1-methylazetidin-3-yl)phenyl]ethyl}-9H-purin-6-amine bis(trifluoroacetate)] | < 50 nM
CNC(=O)c1cc(-c2c(C)c(Cl)cc(C(C)Nc3ncnc4[nH]cnc34)c2OC)cn1C (stereo not shown) [Example 175, 4-{3-Chloro-6-methoxy-2-methyl-5-[1-(9H-purin-6-ylamino)ethyl]phenyl}-N,1-dimethyl-1H-pyrrole-2-carboxamide] | < 50 nM
COc1c(C(C)Nc2ncnc3[nH]cnc23)cc(Cl)c(C)c1C1CN(C(C)C)C(=O)CO1 (stereo not shown) [Example 191, 6-{3-Chloro-6-methoxy-2-methyl-5-[1-(9H-purin-6-ylamino)ethyl]phenyl}-4-isopropylmorpholin-3-one trifluoroacetate] | < 50 nM
1-{3′-chloro-3-fluoro-6′-methoxy-2′-methyl-5′-[1-(9H-purin-6-ylamino)ethyl]biphenyl-4-yl]carbonyl)piperidin-4-ol [Example 69] | < 50 nM
COc1c(C(C)Nc2ncnc3[nH]cnc23)cc(Cl)c(C)c1C1CN(C(C)C)C(=O)O1 (stereo not shown) [Example 189, 5-{3-Chloro-6-methoxy-2-methyl-5-[1-(9H-purin-6-ylamino)ethyl]phenyl}-3-isopropyl-1,3-oxazolidin-2-one trifluoroacetate] | < 50 nM
COc1c(C(C)Nc2ncnc3[nH]cnc23)cc(Cl)c(C)c1-c1ccc(C(C)(C)OC)nc1 (stereo not shown) [Example 185, N-(1-{5-chloro-2-methoxy-3-[6-(1-methoxy-1-methylethyl)pyridin-3-yl]-4-methylphenyl}ethyl)-9H-purin-6-amine bis(2,2,2-trifluoroacetate)] | < 50 nM
COc1c(C(C)Nc2ncnc3[nH]cnc23)cc(F)c(C)c1-c1ccc(S(C)(=O)=O)cc1 (stereo not shown) [Example 118, N-{1-[5-Fluoro-2-methoxy-6-methyl-4′-(methylsulfonyl)biphenyl-3-yl]ethyl}-9H-purin-6-amine] | 50 to 100 nM
COc1c(C(C)Nc2ncnc3[nH]cnc23)cc(F)c(C)c1-c1cnn(C)c1 (stereo not shown) [Example 121, N-{1-[5-fluoro-2-methoxy-4-methyl-3-(1-methyl-1H-pyrazol-4-yl)phenyl]ethyl}-9H-purin-6-amine] | < 50 nM
COc1c(C(C)Nc2ncnc3[nH]cnc23)cc(Cl)c(Cl)c1C1CN(C2CCC2)C1 (stereo not shown) [Example 209, N-{1-[4,5-Dichloro-3-(1-cyclobutylazetidin-3-yl)-2-methoxyphenyl]ethyl}-9H-purin-6-amine bistrifluoroacetate] | < 50 nM
CCOc1c(C(C)Nc2ncnc3[nH]cnc23)cc(Cl)c(C#N)c1C1CN(C(C)C)C1 (single isomer, unassigned) [Example 214, 6-Chloro-3-ethoxy-2-(1-isopropylazetidin-3-yl)-4-[1-(9H-purin-6-ylamino)ethyl]benzonitrile bis(trifluoroacetate)] | < 50 nM
Cc1c(Cl)cc(C(C)Nc2ncnc3[nH]cnc23)c(OCCN2CCOCC2)c1-c1cncc(S(C)(=O)=O)c1 (stereo not shown) [Example 156, N-{1-[5-chloro-4-methyl-3-[5-(methyl-sulfonyl)-pyridin-3-yl]-2-(2-morpholin-4-ylethoxy)-phenyl]-ethyl}-9H-purin-6-amine] | < 50 nM
COc1c(C(C)Nc2ncnc3[nH]cnc23)cc(Cl)c(C)c1-c1ccc(OC(F)(F)F)cc1 (stereo not shown) [Example 90, N-{1-[5-chloro-2-methoxy-6-methyl-4′-(trifluoromethoxy)biphenyl-3-yl]ethyl}-9H-purin-6-amine] | 250 to 500 nM
CCOc1cccc(-c2c(C)c(F)cc(C(C)Nc3ncnc4[nH]cnc34)c2OC)c1 (stereo not shown) [Example 119, N-[1-(3′-ethoxy-5-fluoro-2-methoxy-6-methylbiphenyl-3-yl)ethyl]-9H-purin-6-amine] | 100 to 250 nM
COc1cncc(-c2c(C)c(Cl)cc(C(C)Nc3ncnc4[nH]cnc34)c2OCCN2CCOCC2)c1 (stereo not shown) [Example 157, N-{1-[5-chloro-3-(5-methoxy-pyridin-3-yl)-4-methyl-2-(2-mor-pholin-4-ylethoxy)-phenyl]-ethyl}-9H-purin-6-amine] | < 50 nM
Cc1c(Cl)cc(C(C)Nc2ncnc3[nH]cnc23)c(OCCN2CCOCC2)c1-c1ccncc1 (stereo not shown) [Example 126, N-{1-[5-Chloro-4-methyl-2-(2-morpholin-4-ylethoxy)-3-pyridin-4-ylphenyl]ethyl}-9H-purin-6-amine] | < 50 nM

Next, values leading:

IC50 | Compound
50 to 100 nM | CC(Nc1ncnc2[nH]cnc12)c1cc(Cl)cc(-c2cc(F)nc(F)c2)c1-c1cc(F)cc(F)c1 (stereo not shown) [Example 133, N-{1-[4-chloro-6-(2,6-difluoropyridin-4-yl)-3′,5′-difluorobiphenyl-2-yl]ethyl}-9H-purin-6-amine]
< 50 nM | COc1c(C(C)Nc2ncnc3[nH]cnc23)cc(Cl)c(C)c1-c1ccnnc1 (stereo not shown) [Example 163, N-[1-(5-Chloro-2-methoxy-4-methyl-3-pyridazin-4-ylphenyl)ethyl]-9H-purin-6-amine bis(trifluoroacetate)]
50 to 100 nM | COc1cncc(-c2cc(Cl)cc(C(C)Nc3ncnc4[nH]cnc34)c2OC)c1 (stereo not shown) [Example 146, N-{1-[5-chloro-2-methoxy-3-(5-methoxy-pyridin-3-yl)phenyl]ethyl}-9H-purin-6-amine]
< 50 nM | COc1c(C(C)Nc2ncnc3[nH]cnc23)cc(Cl)c(C)c1-c1cncc(C)c1 (stereo not shown) [Example 55, N-{1-[5-chloro-2-methoxy-4-methyl-3-(5-methylpyridin-3-yl)phenyl]ethyl}-9H-purin-6-amine]
< 50 nM | Cc1c(Cl)cc(C(C)Nc2ncnc3[nH]cnc23)c(OCCN2CCOCC2)c1-c1cncc(F)c1 (stereo not shown) [Example 162, N-{1-[5-chloro-3-(5-fluoro-pyridin-3-yl)-4-methyl-2-(2-mor-pholin-4-ylethoxy)-phenyl]-ethyl}-9H-purin-6-amine]
< 50 nM | Cc1c(Cl)cc(C(C)Nc2ncnc3[nH]cnc23)c(OCCN2CCOCC2)c1-c1cncc(Cl)c1 (stereo not shown) [Example 151, N-{1-[5-chloro-3-(5-chloro-pyridin-3-yl)-4-methyl-2-(2-morpho-lin-4-yl-ethoxy)-phenyl]-ethyl}-9H-purin-6-amine]
100 to 250 nM | COc1ccc(-c2c(C)c(Cl)cc(C(C)Nc3ncnc4[nH]cnc34)c2OC)cc1 (stereo not shown) [Example 101]
< 50 nM | CC(Nc1ncnc2[nH]cnc12)c1cc(Cl)cc(-c2cncnc2)c1-c1cc(F)cc(F)c1 (stereo not shown) [Example 132, N-[1-(4-chloro-3′,5′-difluoro-6-pyrimidin-5-ylbiphenyl-2-yl)ethyl]-9H-purin-6-amine]
< 50 nM | COc1c(C(C)Nc2ncnc3[nH]cnc23)cc(Cl)c(C)c1-c1ccc(C(=O)N(C)C)c(F)c1 (stereo not shown) [Example 65, 3′-chloro-3-fluoro-6′-methoxy-N,N,2′-trimethyl-5′-[1-(9H-purin-6-ylamino)ethyl]biphenyl-4-carboxamide]
< 50 nM | COc1cncc(-c2c(C)c(Cl)cc(C(C)Nc3ncnc4[nH]cnc34)c2OC)c1 (single isomer, unassigned) [Example 113, N-{1-[5-Chloro-2-methoxy-3-(5-methoxypyridin-3-yl)-4-methylphenyl]ethyl}-9H-purin-6-amine]

— patent publication US9815839B2, “N-(1-(substituted-phenyl)ethyl)-9H-purin-6-amines as PI3K inhibitors” (Incyte Corporation, priority 2010, dated 2017)
